According to US8921376B2, “Pyrrolopyridines useful as inhibitors of protein kinase” (Vertex Pharmaceuticals Incorporated, priority 2005, dated 2014):

What was measured:
Type in all cases: biochemical
ROCK I = ROCK I (Homo sapiens, UniProt Q13464); test: ROCK-I inhibition assay (radioactive enzyme assay, MBP substrate); settings: enzyme inhibition, Ki(app), Table 5
How it was run: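 Human ROCK at 5 nM phosphorylated 27 μM myelin basic protein with 13 μM [γ-33P]ATP (final) in HEPES pH 7.5, MgCl2, NaCl, DTT and 1.5% DMSO. Reactions ran 2 h at room temperature before TCA quench and filter-plate scintillation counting. After background subtraction, data were fit to give Ki(app).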

JAK2 = JAK2 (Homo sapiens, UniProt O60674); test: JAK2 inhibition assay (as Example 3 with JAK-2 enzyme); settings: enzyme inhibition, Table 5
How it was run: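 Radiometric JAK2 kinase assay: poly(Glu)4Tyr substrate at final 15 μM, ATP at final 12 μM with [33P]; buffer 100 mM HEPES pH 7.4, 1 mM DTT, 10 mM MgCl2, 25 mM NaCl, 0.01% BSA. 20 min at 25 °C, TCA-stopped, 33P incorporation counted after filter capture.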

JAK3 = molecular target: T1, JAK3 (Homo sapiens, UniProt P52333); test: JAK3 inhibition assay (33P incorporation into poly(Glu)4Tyr); settings: enzyme inhibition, Table 5
T1 sequence (P52333 1-1124): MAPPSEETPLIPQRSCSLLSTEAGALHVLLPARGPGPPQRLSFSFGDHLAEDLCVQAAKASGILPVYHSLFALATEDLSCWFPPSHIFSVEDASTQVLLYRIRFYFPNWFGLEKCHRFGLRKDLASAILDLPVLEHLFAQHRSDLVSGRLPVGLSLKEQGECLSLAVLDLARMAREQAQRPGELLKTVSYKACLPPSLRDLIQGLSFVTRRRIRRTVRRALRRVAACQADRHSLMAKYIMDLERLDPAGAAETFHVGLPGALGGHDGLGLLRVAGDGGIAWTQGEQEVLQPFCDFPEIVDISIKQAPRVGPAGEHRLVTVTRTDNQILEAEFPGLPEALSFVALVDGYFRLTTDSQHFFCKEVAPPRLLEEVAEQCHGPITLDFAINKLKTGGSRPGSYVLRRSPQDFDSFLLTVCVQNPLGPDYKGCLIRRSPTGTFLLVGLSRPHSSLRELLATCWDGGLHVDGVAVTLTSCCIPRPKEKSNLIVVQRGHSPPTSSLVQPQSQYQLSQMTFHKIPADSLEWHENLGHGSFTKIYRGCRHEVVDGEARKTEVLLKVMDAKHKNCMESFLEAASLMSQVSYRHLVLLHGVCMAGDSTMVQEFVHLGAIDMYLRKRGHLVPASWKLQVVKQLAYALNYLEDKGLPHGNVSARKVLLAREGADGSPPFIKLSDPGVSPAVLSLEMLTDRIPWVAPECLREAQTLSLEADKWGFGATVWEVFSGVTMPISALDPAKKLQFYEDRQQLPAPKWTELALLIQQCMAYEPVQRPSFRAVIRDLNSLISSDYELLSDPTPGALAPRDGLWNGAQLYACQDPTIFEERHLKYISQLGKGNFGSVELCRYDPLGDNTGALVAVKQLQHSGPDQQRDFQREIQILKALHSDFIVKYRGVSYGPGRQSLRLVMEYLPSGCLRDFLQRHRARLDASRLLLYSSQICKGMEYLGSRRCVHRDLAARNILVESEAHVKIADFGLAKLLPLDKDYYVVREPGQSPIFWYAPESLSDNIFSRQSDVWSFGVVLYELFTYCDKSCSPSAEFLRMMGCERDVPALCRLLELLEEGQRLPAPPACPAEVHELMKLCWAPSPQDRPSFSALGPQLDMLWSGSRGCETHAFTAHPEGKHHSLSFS
How it was run: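 Human JAK3 at 1 nM phosphorylated 1 μM poly(Glu)4Tyr using 5 μM [33P]ATP in HEPES pH 7.4 buffer with MgCl2, DTT and BSA. Reactions ran 20 min at 25° C. and were stopped with TCA. 33P incorporation was measured by scintillation after glass-fiber filter capture.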

ROCK I, sequence (Q13464 whole entry): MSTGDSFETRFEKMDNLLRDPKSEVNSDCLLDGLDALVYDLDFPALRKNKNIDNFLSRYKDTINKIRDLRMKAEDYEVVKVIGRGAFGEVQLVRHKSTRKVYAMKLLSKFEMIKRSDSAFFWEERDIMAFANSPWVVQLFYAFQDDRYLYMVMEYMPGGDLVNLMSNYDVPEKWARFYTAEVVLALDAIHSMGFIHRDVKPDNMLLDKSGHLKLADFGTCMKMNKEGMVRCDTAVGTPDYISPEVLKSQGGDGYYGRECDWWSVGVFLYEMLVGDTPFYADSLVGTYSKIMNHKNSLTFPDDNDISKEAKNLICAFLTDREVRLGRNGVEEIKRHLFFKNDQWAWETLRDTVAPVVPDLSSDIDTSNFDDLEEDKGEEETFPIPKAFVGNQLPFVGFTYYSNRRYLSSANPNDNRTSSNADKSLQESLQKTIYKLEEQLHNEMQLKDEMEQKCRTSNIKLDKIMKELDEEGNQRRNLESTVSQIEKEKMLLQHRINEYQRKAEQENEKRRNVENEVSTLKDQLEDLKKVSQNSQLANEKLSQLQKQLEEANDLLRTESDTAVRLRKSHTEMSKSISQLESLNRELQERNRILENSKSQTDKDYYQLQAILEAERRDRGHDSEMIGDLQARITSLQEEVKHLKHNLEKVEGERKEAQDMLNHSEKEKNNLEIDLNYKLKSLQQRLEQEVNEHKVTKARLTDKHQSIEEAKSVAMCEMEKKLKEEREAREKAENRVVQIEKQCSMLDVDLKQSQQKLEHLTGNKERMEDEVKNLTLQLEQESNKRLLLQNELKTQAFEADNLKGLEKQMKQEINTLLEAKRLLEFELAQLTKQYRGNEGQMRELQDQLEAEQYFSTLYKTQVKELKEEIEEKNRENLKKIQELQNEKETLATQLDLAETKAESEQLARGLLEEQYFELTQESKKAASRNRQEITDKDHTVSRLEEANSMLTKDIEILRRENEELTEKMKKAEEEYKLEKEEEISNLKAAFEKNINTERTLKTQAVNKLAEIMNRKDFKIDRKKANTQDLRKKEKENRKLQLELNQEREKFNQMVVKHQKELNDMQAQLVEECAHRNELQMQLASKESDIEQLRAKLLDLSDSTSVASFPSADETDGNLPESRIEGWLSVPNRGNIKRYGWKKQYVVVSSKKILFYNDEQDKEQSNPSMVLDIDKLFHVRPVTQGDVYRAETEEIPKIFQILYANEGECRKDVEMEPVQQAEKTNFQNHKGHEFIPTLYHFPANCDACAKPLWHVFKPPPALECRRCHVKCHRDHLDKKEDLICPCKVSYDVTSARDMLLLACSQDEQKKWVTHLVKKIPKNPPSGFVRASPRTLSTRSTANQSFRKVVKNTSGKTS
JAK2, sequence (O60674 whole entry): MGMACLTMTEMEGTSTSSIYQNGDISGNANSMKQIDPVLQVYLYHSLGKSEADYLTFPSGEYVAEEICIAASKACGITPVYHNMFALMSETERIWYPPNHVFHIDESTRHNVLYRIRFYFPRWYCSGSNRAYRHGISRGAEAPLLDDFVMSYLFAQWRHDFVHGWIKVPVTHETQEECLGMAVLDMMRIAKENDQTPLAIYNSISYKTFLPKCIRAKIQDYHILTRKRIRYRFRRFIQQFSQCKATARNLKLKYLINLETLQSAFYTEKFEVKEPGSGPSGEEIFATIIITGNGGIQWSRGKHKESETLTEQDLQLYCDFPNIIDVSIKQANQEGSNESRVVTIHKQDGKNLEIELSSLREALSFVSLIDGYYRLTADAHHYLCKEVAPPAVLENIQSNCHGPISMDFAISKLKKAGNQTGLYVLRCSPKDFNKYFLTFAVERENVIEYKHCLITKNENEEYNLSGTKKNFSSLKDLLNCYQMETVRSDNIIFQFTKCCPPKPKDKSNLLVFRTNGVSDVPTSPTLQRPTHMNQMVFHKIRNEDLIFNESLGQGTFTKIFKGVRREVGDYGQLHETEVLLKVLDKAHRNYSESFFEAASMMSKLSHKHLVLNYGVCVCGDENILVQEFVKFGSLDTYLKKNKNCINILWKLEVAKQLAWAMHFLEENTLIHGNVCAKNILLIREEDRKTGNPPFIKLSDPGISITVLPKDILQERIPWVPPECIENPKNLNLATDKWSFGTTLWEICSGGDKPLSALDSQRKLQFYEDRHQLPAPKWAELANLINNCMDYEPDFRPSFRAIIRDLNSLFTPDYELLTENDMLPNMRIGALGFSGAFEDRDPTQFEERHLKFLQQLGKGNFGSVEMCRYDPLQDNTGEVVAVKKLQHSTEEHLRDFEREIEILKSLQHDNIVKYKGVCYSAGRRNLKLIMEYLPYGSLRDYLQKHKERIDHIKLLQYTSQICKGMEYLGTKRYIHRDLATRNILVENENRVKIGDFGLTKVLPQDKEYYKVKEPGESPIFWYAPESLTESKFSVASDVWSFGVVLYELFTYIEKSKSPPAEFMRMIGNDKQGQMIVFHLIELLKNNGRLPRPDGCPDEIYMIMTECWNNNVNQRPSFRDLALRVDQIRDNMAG

Structure (SMILES) | Ki (ROCK I) [nM] | Ki (JAK2) [nM] | Ki (JAK3) [nM]
CN1CCN(C(=O)c2cccc(-c3ccnc4[nH]ccc34)c2)CC1 [compound 95, (4-Methyl-piperazin-1-yl)-[3-(1H-pyrrolo[2,3-b]pyridin-4-yl)-phenyl]-methanone] | 500 to 5000 | > 5000 | > 5000
CC(=O)Nc1cccc(-c2ccnc3[nH]ccc23)n1 [compound 98, N-(6-(1H-pyrrolo[2,3-b]pyridine-4-yl)pyridin-2-yl)acetamine] | 500 to 5000 | < 500 | 500 to 5000
O=C(Cc1ccccc1)Nc1cccc(-c2ccnc3[nH]ccc23)n1 [compound 99, N-(6-(1H-pyrrolo[2,3-b]pyridine-4-yl)pyridin-2-yl)phenylacetamide] | 500 to 5000 | < 500 | > 5000
N#CC1(c2cccc(-c3ccnc4[nH]ccc34)n2)CC1 [compound 101, 1-(6-(1H-pyrrolo[2,3-b]pyridin-4-yl)pyridin-2-yl)cyclopropanecarbonitrile] | < 500 | < 500 | < 500
c1ncc(-c2ccnc3[nH]ccc23)cn1 [compound 104, 4-Pyrimidin-5-yl-1H-pyrrolo[2,3-b]pyridine] | 500 to 5000 | 500 to 5000 | 500 to 5000
c1cc(-c2ccnc3[nH]ccc23)[nH]n1 [compound 106, 4-(2H-Pyrazol-3-yl)-1H-pyrrolo[2,3-b]pyridine] | < 500 | 500 to 5000 | < 500
CC(=O)Nc1cccc(-c2ccnc3[nH]ccc23)c1 [compound 107, N-[3-(1H-Pyrrolo[2,3-b]pyridin-4-yl)-phenyl]-acetamide] | 500 to 5000 | 500 to 5000 | 500 to 5000
CC(C)c1cccc(-c2ccnc3[nH]ccc23)c1 [compound 109, 4-(3-Isopropyl-phenyl)-1H-pyrrolo[2,3-b]pyridine] | < 500 | < 500 | < 500

Further lines, results first:

Ki (ROCK I) [nM] | Ki (JAK2) [nM] | Ki (JAK3) [nM] | Structure (SMILES)
500 to 5000 | 500 to 5000 | 500 to 5000 | O=C(c1cccc(-c2ccnc3[nH]ccc23)c1)N1CCOCC1 [compound 94, Morpholin-4-yl-[3-(1H-pyrrolo[2,3-b]pyridin-4-yl)-phenyl]-methanone]
500 to 5000 | 500 to 5000 | 500 to 5000 | CC(C)(C(=O)O)c1cccc(-c2ccnc3[nH]ccc23)n1 [compound 96, 2-(6-(1H-pyrrolo[2,3-b]pyridin-4-yl)pyridin-2-yl)-2-methylpropanoic acid]
< 500 | < 500 | < 500 | CC(C)c1cccc(-c2ccnc3[nH]ccc23)n1 [compound 97, 4-(6-isopropylpyridin-2-yl)-1H-pyrrolo[2,3-b]pyridine]
500 to 5000 | < 500 | 500 to 5000 | O=C(Nc1cccc(-c2ccnc3[nH]ccc23)n1)c1ccccc1 [compound 100, N-(6-(1H-pyrrolo[2,3-b]pyridine-4-yl)pyridin-2-yl)benzamide]
< 500 | < 500 | < 500 | N#CC1(c2cccc(-c3ccnc4[nH]ccc34)n2)CCCC1 [compound 102, 1-(6-(1H-pyrrolo[2,3-b]pyridin-4-yl)pyridin-2-yl)cyclopentanecarbonitrile]
< 500 | < 500 | < 500 | N#CC1(c2cccc(-c3ccnc4[nH]ccc34)n2)CCCCC1 [compound 103, 1-(6-(1H-pyrrolo[2,3-b]pyridin-4-yl)pyridin-2-yl)cyclohexanecarbonitrile]
< 500 | < 500 | < 500 | Oc1cccc(-c2ccnc3[nH]ccc23)c1 [compound 105, 3-(1H-Pyrrolo[2,3-b]pyridin-4-yl)-phenol]
< 500 | < 500 | < 500 | N#Cc1ccc(-c2ccnc3[nH]ccc23)s1 [compound 108, 5-(1H-Pyrrolo[2,3-b]pyridin-4-yl)-thiophene-2-carbonitrile]
